The subject of data set [1] is HCV genotype 1a (HCV-1a) replicon cells. The experiment in a line: HCV genotype 1a replicon luciferase assay (EC50). Format: cell-based, hepatitis C virus genotype 1a (H77 clone). Conditions: Hepatitis C virus, 72 h, 3 days, luciferase (Bright-Glo). A digest of the protocol:
(§1)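 EC50 by nonlinear fitting of % inhibition from Bright-Glo luciferase signal after 3-day, 37° C. compound exposure (5-fold, 6 points from 100, 10 or 1 nM; 0.5% DMSO; duplicates). Cells: 1a replicon from H77 (K1691R/K2040R/S2204I) or 1b from Con1 (E1202G/T1280I/K1846T), 8000 per well.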
(In antiviral work, replicon cells carry a viral genome segment that copies itself.)

In data set [2] the test system is HCV genotype 1b (HCV-1b) replicon cells. The experiment in a line: HCV genotype 1b replicon luciferase assay (EC50). Format: cell-based, hepatitis C virus genotype 1b (Con1 clone). Conditions: Hepatitis C virus, 72 h, 3 days, luciferase (Bright-Glo). A digest of the protocol:
as §1

Data set [3] is described as follows: Cell Titer-fluor cell activity assay in HCV-1b replicon cells (CC50). The class given is cell-based. The method in brief: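 CC50 derived by nonlinear fitting of inhibition % from Cell Titer-fluor signal (405/515 nm, 30 min). Cells: genotype 1b Con1 replicon carrying E1202G, T1280I, K1846T, seeded 8000/well with compound for 3 days, 37 °C, 0.5% DMSO; 6 points, 5-fold dilution, top 100, 10 or 1 nM, duplicates.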

Molecules are shown by their SMILES.

In general, EC50 refers to the concentration needed to bring the measured effect to its halfway point. The CC50 is the concentration that lowers cell viability or growth by half. Read a high CC50 as better tolerance by the cells.

As for `COC(=O)N[C@H](C(=O)N1CCC[C@H]1c1ncc(-c2ccc(-c3ccc(-c4cnc([C@H]5C6CCC(C6)[C@@H]5C(=O)NCc5ccc(OC)nc5)[nH]4)cc3)cc2)[nH]1)C(C)C` (stereo partly drawn) [AA_200_A], the concentration for a half-maximal effect (EC50) was in the range of 1 to 10 nM in data set [1] and 0.001 to 0.1 nM in data set [2]. Besides, the CC50 at 3 days in data set [3] was over 1 nM.
The like results for `COC(=O)N[C@H](C(=O)N1CCC[C@H]1c1ncc(-c2ccc(-c3ccc(-c4cnc([C@@H]5C6CCC(C6)[C@H]5C(=O)NCc5ccc(OC)nc5)[nH]4)cc3)cc2)[nH]1)C(C)C` (stereo partly drawn) [AA_200_B] were, in that order, 1 to 10 nM, 0.001 to 0.1 nM and over 1 nM.
Taken in the same sequence, the figures for `COC(=O)N[C@H](C(=O)N1CCC[C@H]1c1ncc(-c2ccc(-c3ccc(-c4cnc([C@H]5C6CCC(C6)[C@@H]5C(=O)NCc5cncnc5)[nH]4)cc3)cc2)[nH]1)C(C)C` (stereo partly drawn) [AA_201_A] were 0.101 to 1 nM, 0.001 to 0.1 nM and over 1 nM.
In the case of `COC(=O)N[C@H](C(=O)N1CCC[C@H]1c1ncc(-c2ccc(-c3ccc(-c4cnc([C@@H]5C6CCC(C6)[C@H]5C(=O)NCc5cncnc5)[nH]4)cc3)cc2)[nH]1)C(C)C` (stereo partly drawn) [AA_201_B], the concentration giving a half-maximal response (EC50) in data set [1] lay in the range of 1 to 10 nM; in data set [2] it was 0.001 to 0.1 nM. The CC50 at 3 days in data set [3] is over 1 nM.
The like results for `COC(=O)N[C@H](C(=O)N1CCC[C@H]1c1ncc(-c2ccc(-c3ccc(-c4cnc([C@@H]5[C@H]6CC[C@H](C6)[C@H]5C(=O)NCc5cncnc5)[nH]4)cc3)cc2)[nH]1)C(C)C` [AA_201_ENDOA2] were, in that order, 0.101 to 1 nM, 0.001 to 0.1 nM and over 1 nM.
Taken in the same sequence, the figures for `COC(=O)N[C@H](C(=O)N1CCC[C@H]1c1ncc(-c2ccc(-c3ccc(-c4cnc([C@H]5C6CCC(C6)[C@@H]5C(=O)NCCc5ccccn5)[nH]4)cc3)cc2)[nH]1)C(C)C` (stereo partly drawn) [AA_202] were 1 to 10 nM, 0.001 to 0.1 nM and over 1 nM.
Taken in the same sequence, the figures for `COC(=O)N[C@H](C(=O)N1CCC[C@H]1c1ncc(-c2ccc(-c3ccc(-c4cnc([C@H]5C6CCC(C6)[C@@H]5C(=O)NCc5cccnc5OC)[nH]4)cc3)cc2)[nH]1)C(C)C` (stereo partly drawn) [AA_203_A] were 1 to 10 nM, 0.001 to 0.1 nM and over 1 nM.
For `COC(=O)N[C@H](C(=O)N1CCC[C@H]1c1ncc(-c2ccc(-c3ccc(-c4cnc([C@@H]5C6CCC(C6)[C@H]5C(=O)NCc5cccnc5OC)[nH]4)cc3)cc2)[nH]1)C(C)C` (stereo partly drawn) [AA_203_B], the EC50 fell in the range of 1 to 10 nM in data set [1] and 0.001 to 0.1 nM in data set [2]. This compound showed a CC50 at 3 days in data set [3] of over 1 nM.
The like results for `COC(=O)N[C@H](C(=O)N1CCC[C@H]1c1ncc(-c2ccc(-c3ccc(-c4cnc([C@@H]5C6CCC(C6)[C@H]5C(=O)NC(C)c5cccnc5)[nH]4)cc3)cc2)[nH]1)C(C)C` (stereo partly drawn) [AA_204_B] were, in that order, 1 to 10 nM, 0.001 to 0.1 nM and over 1 nM.
As to `COC(=O)N[C@H](C(=O)N1CCC[C@H]1c1ncc(-c2ccc(-c3ccc(-c4cnc([C@@H]5[C@H]6CC[C@H](C6)[C@H]5C(=O)N[C@@H](C)c5cccnc5)[nH]4)cc3)cc2)[nH]1)C(C)C` [AA_204_ENDOA2_A], the concentration for a half-maximal effect (EC50) in data set [1] and in data set [2] was 0.001 to 0.1 nM throughout. The same compound returned a CC50 at 3 days in data set [3] of over 1 nM.
With `COC(=O)N[C@H](C(=O)N1CCC[C@H]1c1ncc(-c2ccc(-c3ccc(-c4cnc([C@@H]5[C@H]6CC[C@H](C6)[C@H]5C(=O)N[C@H](C)c5cccnc5)[nH]4)cc3)cc2)[nH]1)C(C)C` [AA_204_ENDOA2_B], the 50% effective concentration (EC50) in data set [1] is 1 to 10 nM; in data set [2] it was 0.001 to 0.1 nM. The compound also returned a CC50 at 3 days in data set [3] of over 1 nM.
The like results for `COC(=O)N[C@H](C(=O)N1CCC[C@H]1c1ncc(-c2ccc(-c3ccc(-c4cnc([C@H]5C6CCC(C6)[C@@H]5C(=O)NCc5cnccn5)[nH]4)cc3)cc2)[nH]1)C(C)C` (stereo partly drawn) [AA_206_A] were, in that order, 0.101 to 1 nM, 0.001 to 0.1 nM and over 1 nM.
On to `COC(=O)N[C@H](C(=O)N1CCC[C@H]1c1ncc(-c2ccc(-c3ccc(-c4cnc([C@@H]5C6CCC(C6)[C@H]5C(=O)NCc5cnccn5)[nH]4)cc3)cc2)[nH]1)C(C)C` (stereo partly drawn) [AA_206_B], for which the results for the half-maximal effective concentration (EC50) in data set [1] and in data set [2] were 1 to 10 nM and 0.001 to 0.1 nM, respectively. The CC50 at 3 days in data set [3] was over 1 nM.
With `COC(=O)N[C@H](C(=O)N1CCC[C@H]1c1ncc(-c2ccc(-c3ccc(-c4cnc(C5[C@H]6CC[C@H](C6)[C@H]5C(=O)NCc5cnccn5)[nH]4)cc3)cc2)[nH]1)C(C)C` (stereo partly drawn) [AA_206_ENDOA2], the concentration giving a half-maximal response (EC50) in data set [1] fell in the range of 0.101 to 1 nM; in data set [2] it was 0.001 to 0.1 nM. In data set [3], this compound registered a cytotoxic concentration (CC50) at 3 days of over 1 nM.
The like results for `COC(=O)N[C@H](C(=O)N1CCC[C@H]1c1ncc(-c2ccc(-c3ccc(-c4cnc([C@H]5C6CCC(C6)[C@@H]5C(=O)NCc5ccccc5)[nH]4)cc3)cc2)[nH]1)C(C)C` (stereo partly drawn) [AA_207_A] were, in that order, 1 to 10 nM, 0.001 to 0.1 nM and over 1 nM.
Taken in the same sequence, the figures for `COC(=O)N[C@H](C(=O)N1CCC[C@H]1c1ncc(-c2ccc(-c3ccc(-c4cnc([C@@H]5C6CCC(C6)[C@H]5C(=O)NCc5ccccc5)[nH]4)cc3)cc2)[nH]1)C(C)C` (stereo partly drawn) [AA_207_B] were 10 to 100 nM, 0.001 to 0.1 nM and over 1 nM.
As to `COC(=O)N[C@H](C(=O)N1CCC[C@H]1c1ncc(-c2ccc(-c3ccc(-c4cnc([C@H]5C6CCC(C6)[C@@H]5C(=O)NCc5nccs5)[nH]4)cc3)cc2)[nH]1)C(C)C` (stereo partly drawn) [AA_208_A], the EC50 was 1 to 10 nM in data set [1] and 0.001 to 0.1 nM in data set [2]. Also, in data set [3], the CC50 at 3 days was over 1 nM.
In the case of `COC(=O)N[C@H](C(=O)N1CCC[C@H]1c1ncc(-c2ccc(-c3ccc(-c4cnc([C@@H]5C6CCC(C6)[C@H]5C(=O)NCc5nccs5)[nH]4)cc3)cc2)[nH]1)C(C)C` (stereo partly drawn) [AA_208_B], the EC50 in data set [1] lay within 1 to 10 nM; in data set [2], 0.001 to 0.1 nM. In data set [3], the CC50 at 3 days is over 1 nM.
Taken in the same sequence, the figures for `COC(=O)N[C@H](C(=O)N1CCC[C@H]1c1ncc(-c2ccc(-c3ccc(-c4cnc([C@@H]5[C@H]6CC[C@H](C6)[C@H]5C(=O)NCc5nccs5)[nH]4)cc3)cc2)[nH]1)C(C)C` [AA_208_ENDOA2] were 0.101 to 1 nM, 0.001 to 0.1 nM and over 1 nM.
The like results for `COC(=O)N[C@H](C(=O)N1CCC[C@H]1c1ncc(-c2ccc(-c3ccc(-c4cnc([C@H]5C6CCC(C6)[C@@H]5C(=O)NCCc5ccncc5)[nH]4)cc3)cc2)[nH]1)C(C)C` (stereo partly drawn) [AA_209_A] were, in that order, 10 to 100 nM, 0.001 to 0.1 nM and over 1 nM.
In the case of `COC(=O)N[C@H](C(=O)N1CCC[C@H]1c1ncc(-c2ccc(-c3ccc(-c4cnc([C@@H]5C6CCC(C6)[C@H]5C(=O)NCCc5ccncc5)[nH]4)cc3)cc2)[nH]1)C(C)C` (stereo partly drawn) [AA_209_B], the concentration for a half-maximal effect (EC50) in data set [1] lay in the range of 10 to 100 nM; in data set [2], 0.101 to 1 nM. This compound also registered a cytotoxic concentration (CC50) at 3 days in data set [3] of over 1 nM.
As for `COC(=O)N[C@H](C(=O)N1CCC[C@H]1c1ncc(-c2ccc(-c3ccc(-c4cnc([C@H]5C6CCC(C6)[C@@H]5C(=O)NCc5ccc(N)cc5)[nH]4)cc3)cc2)[nH]1)C(C)C` (stereo partly drawn) [AA_210_A], the EC50 in data set [1] was in the range of 10 to 100 nM; in data set [2], 0.001 to 0.1 nM. The compound also displayed a half-maximal cytotoxic concentration (CC50) at 3 days in data set [3] of over 1 nM.
The like results for `COC(=O)N[C@H](C(=O)N1CCC[C@H]1c1ncc(-c2ccc(-c3ccc(-c4cnc([C@@H]5C6CCC(C6)[C@H]5C(=O)NCc5ccc(N)cc5)[nH]4)cc3)cc2)[nH]1)C(C)C` (stereo partly drawn) [AA_210_B] were, in that order, 10 to 100 nM, 0.001 to 0.1 nM and over 1 nM.
With `COC(=O)N[C@H](C(=O)N1CCC[C@H]1c1ncc(-c2ccc(-c3ccc(-c4cnc([C@H]5C6CCC(C6)[C@@H]5C(=O)NCc5cccnc5)[nH]4)cc3)cc2C)[nH]1)C(C)C` (stereo partly drawn) [AA_211_A], the EC50 in data set [1] is 1 to 10 nM; in data set [2], 0.001 to 0.1 nM. This compound returned a half-maximal cytotoxic concentration (CC50) at 3 days in data set [3] of over 1 nM.
Taken in the same sequence, the figures for `COC(=O)N[C@H](C(=O)N1CCC[C@H]1c1ncc(-c2ccc(-c3ccc(-c4cnc([C@@H]5C6CCC(C6)[C@H]5C(=O)NCc5cccnc5)[nH]4)cc3)cc2C)[nH]1)C(C)C` (stereo partly drawn) [AA_211_B] were 1 to 10 nM, 0.001 to 0.1 nM and over 1 nM.
The like results for `CCOC(=O)C(NC(=O)[C@H]1C2CCC(C2)[C@@H]1c1ncc(-c2ccc(-c3ccc(-c4cnc([C@@H]5CCCN5C(=O)[C@@H](NC(=O)OC)C(C)C)[nH]4)cc3)cc2)[nH]1)c1cccnc1` (stereo partly drawn) [AA_213] were, in that order, 1 to 10 nM, 0.001 to 0.1 nM and over 1 nM.
The like results for `COC(=O)N[C@H](C(=O)N1CCC[C@H]1c1ncc(-c2ccc(-c3ccc(-c4cnc([C@H]5C6CCC(C6)[C@@H]5C(=O)NCc5ccc(F)nc5)[nH]4)cc3)cc2)[nH]1)C(C)C` (stereo partly drawn) [AA_214_A] were, in that order, 1 to 10 nM, 0.001 to 0.1 nM and over 1 nM.
Regarding `COC(=O)N[C@H](C(=O)N1CCC[C@H]1c1ncc(-c2ccc(-c3ccc(-c4cnc([C@@H]5C6CCC(C6)[C@H]5C(=O)NCc5ccc(F)nc5)[nH]4)cc3)cc2)[nH]1)C(C)C` (stereo partly drawn) [AA_214_B], the 50% effective concentration (EC50) in data set [1] is 10 to 100 nM; in data set [2], 0.001 to 0.1 nM. Further, the half-maximal cytotoxic concentration (CC50) at 3 days in data set [3] is over 1 nM.
Consider `COC(=O)N[C@H](C(=O)N1CCC[C@H]1c1ncc(-c2ccc(-c3ccc(-c4cnc([C@H]5C6CCC(C6)[C@@H]5C(=O)NCc5cccnc5C(C)C)[nH]4)cc3)cc2)[nH]1)C(C)C` (stereo partly drawn) [AA_215_A], for which the results for the half-maximal effective concentration (EC50) in data set [1] and in data set [2] were 10 to 100 nM and 0.001 to 0.1 nM, respectively. The same compound returned a CC50 at 3 days in data set [3] of over 1 nM.
